According to article PMC11555678, “Improved Broad Spectrum Antifungal Drug Synergies with Cryptomycin, a Cdc50-Inspired Antifungal Peptide” (ACS Infectious Diseases, 2024):
In brackets after ≈: the same amount, converted by molar mass. Like-named read-outs stand apart in the source and are kept apart here.

Tests used:
[1] = system: C. neoformans Crm1^OE; assay: microbe, parasite or virus in culture; format: cell-based, Cryptococcus neoformans; conditions: Cryptococcus neoformans, 48 h
How it was run: (§1)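 Broth microdilution per CLSI M27 in RPMI1640, compounds serially diluted 2-fold from DMSO stock. Overnight YPD cultures washed, resuspended and adjusted to 5000 cfu/mL in RPMI as inoculum. Plates incubated 2 days at 37 °C.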

[2] = system: C. neoformans H99; assay: microbe, parasite or virus in culture; format: cell-based, Cryptococcus neoformans; conditions: Cryptococcus neoformans, H99; compound alone; RPMI1640, 37 °C, 48 h; read-out: MIC
How it was run: as §1

[3] = system: C. neoformans MRL862; assay: microbe, parasite or virus in culture; format: cell-based, Cryptococcus neoformans; conditions: Cryptococcus neoformans, MRL862; compound alone; RPMI1640, 37 °C, 48 h; read-out: MIC
How it was run: as §1

[4] = system: C. neoformans apt1Δ; assay: microbe, parasite or virus in culture; format: cell-based, Cryptococcus neoformans; conditions: Cryptococcus neoformans, 48 h
How it was run: as §1

[5] = system: C. neoformans apt2Δ; assay: microbe, parasite or virus in culture; format: cell-based, Cryptococcus neoformans; conditions: Cryptococcus neoformans, 48 h
How it was run: as §1

[6] = system: C. neoformans apt3Δ; assay: microbe, parasite or virus in culture; format: cell-based, Cryptococcus neoformans; conditions: Cryptococcus neoformans, 48 h
How it was run: as §1

[7] = system: C. neoformans apt4Δ; assay: microbe, parasite or virus in culture; format: cell-based, Cryptococcus neoformans; conditions: Cryptococcus neoformans, 48 h
How it was run: as §1

[8] = system: C. neoformans cdc50Δ; assay: microbe, parasite or virus in culture; format: cell-based, Cryptococcus neoformans; conditions: Cryptococcus neoformans, 48 h
How it was run: as §1

[9] = system: C. neoformans crm1Δ; assay: microbe, parasite or virus in culture; format: cell-based, Cryptococcus neoformans; conditions: Cryptococcus neoformans, 48 h
How it was run: as §1

[10] = system: C. glabrata 2001; assay: microbe, parasite or virus in culture; format: cell-based, Candida glabrata; conditions: Nakaseomyces glabratus, 2001; compound alone; RPMI1640, 37 °C, 48 h; read-out: MIC
How it was run: as §1

[11] = system: C. glabrata FKS1-S629P; assay: microbe, parasite or virus in culture; format: cell-based, Candida glabrata; conditions: Nakaseomyces glabratus, FKS1S629P, 48 h
How it was run: as §1

[12] = system: C. glabrata FKS2-S663P; assay: microbe, parasite or virus in culture; format: cell-based, Candida glabrata; conditions: Nakaseomyces glabratus, FKS2S663P, 48 h
How it was run: as §1

[13] = system: C. albicans SC5413; assay: microbe, parasite or virus in culture; format: cell-based, Candida albicans; conditions: Candida albicans, SC5413; compound alone; RPMI1640, 37 °C, 48 h; read-out: MIC
How it was run: as §1

[14] = system: A. fumigatus AF293; assay: microbe, parasite or virus in culture; format: cell-based, Aspergillus fumigatus; conditions: Aspergillus fumigatus, AF293, 48 h
[15] = system: C. neoformans H99; format: cell-based, Cryptococcus neoformans; conditions: RPMI1640, 37 °C; for MIC of antifungal in combination with KKOO / MIC of antifungal in combination with KKOO-NH2: 48 h
Description: All microdilution assays with fungi were carried out in accordance with CLSI protocols from M27 for yeasts and M38 for filamentous fungi, respectively, unless otherwise specified.[64],[65] Briefly, 96-well plates were charged with RPMI1640 media, with operating volume in the first column, 200 μL, and half operating volume, 100 μL, in the remaining wells. Drug stock solution in DMSO was aliquoted into the first well in each row. Half of the volume in the dosed well was serially diluted 2-fold until column 11. Column 11 was used as the negative growth control, and column 12 was used as the positive growth control. ON yeast cultures in YPD were washed twice in DD-H2O, resuspended in PBS, and adjusted to 5000 cfu/mL in RPMI. The 96-well plate was inoculated with 100 μL aliquots of cell suspension per well. […]
(§2) To assess drug synergy, the initial media charged to the plate contained the peptide at twice the final operating concentration; the remaining processing steps were identical to the MIC experiment. Upon addition of 100 μL of inoculant, the final operating concentration was achieved. Control MIC plates were prepared alongside drug synergy plates to account for the day-to-day variability in any individual MIC. FIC index is computed using eq 1. All MIC assays and drug synergy assays were completed with two technical replicates per 96-well plate and a minimum of two biological replicates per drug combination. If a difference in MIC between the two technical replicates on the plate were observed, only the higher concentration was reported as the MIC to reduce the possibility of type 1 error (false positive) [drawing 1] 1

[16] = system: C. albicans SC5413; format: cell-based, Candida albicans; conditions: RPMI1640, 37 °C, 48 h; for MIC of antifungal in combination with KKOO: azole MICs unclear (intermediate phenotype); for MIC of antifungal in combination with KKOO-NH2: azole MICs could not be determined (intermediate phenotype)
Description: (§3) All microdilution assays with fungi were carried out in accordance with CLSI protocols from M27 for yeasts and M38 for filamentous fungi, respectively, unless otherwise specified.[64],[65] Briefly, 96-well plates were charged with RPMI1640 media, with operating volume in the first column, 200 μL, and half operating volume, 100 μL, in the remaining wells. Drug stock solution in DMSO was aliquoted into the first well in each row. Half of the volume in the dosed well was serially diluted 2-fold until column 11. Column 11 was used as the negative growth control, and column 12 was used as the positive growth control. ON yeast cultures in YPD were washed twice in DD-H2O, resuspended in PBS, and adjusted to 5000 cfu/mL in RPMI. The 96-well plate was inoculated with 100 μL aliquots of cell suspension per well. Plates were incubated at 37 °C for 2 days.
as §2

[17] = system: C. auris B11245; format: cell-based, Candida auris; conditions: for MIC of antifungal in combination with KKOO / MIC of antifungal in combination with KKOO-NH2: RPMI1640, 37 °C, 48 h, CAS: paradoxical growth; for MIC of antifungal in combination with KKOO: MIC = <20% growth; for MIC of antifungal in combination with KKOO-NH2: MIC = well with <20% growth
Description: as §3, §2

[18] = system: A. fumigatus AF293; assay: Drug synergy (MIC in peptide-supplemented media); format: cell-based, Aspergillus fumigatus; conditions: RPMI1640, 37 °C, 48 h, CAS: paradoxical growth; for MIC of antifungal in combination with KKOO: MIC = <20% growth; for MIC of antifungal in combination with KKOO-NH2: MIC = well with <20% growth
Description: as §3, §2

Structure (SMILES): CC[C@H](C)C[C@H](C)CCCCCCCCC(=O)N[C@H]1C[C@@H](O)[C@@H](NCCN)NC(=O)[C@@H]2[C@@H](O)CCN2C(=O)[C@H]([C@H](O)CCN)NC(=O)[C@H]([C@H](O)[C@@H](O)c2ccc(O)cc2)NC(=O)[C@@H]2C[C@@H](O)CN2C(=O)[C@H]([C@@H](C)O)NC1=O [CAS, caspofungin]
- MIC [1]: 16 µg/mL (≈ 14.6 µM)
- MIC [2]: 16 µg/mL (≈ 14.6 µM)
- MIC [3]: 16 µg/mL (≈ 14.6 µM)
- MIC [4]: 8 µg/mL (≈ 7.32 µM)
- MIC [5]: 16 µg/mL (≈ 14.6 µM)
- MIC [6]: 16 µg/mL (≈ 14.6 µM)
- MIC [7]: 16 µg/mL (≈ 14.6 µM)
- MIC [8]: 4 µg/mL (≈ 3.66 µM)
- MIC [9]: 16 µg/mL (≈ 14.6 µM)
- MIC [10]: 0.5 µg/mL (≈ 0.457 µM)
- MIC [11]: 2 µg/mL (≈ 1.83 µM)
- MIC [12]: 4 µg/mL (≈ 3.66 µM)
- MIC [13]: 0.25 µg/mL (≈ 0.229 µM)
- MIC [14]: 0.125 µg/mL (≈ 0.114 µM)
- MIC of antifungal in combination with (FITC)KKOO ([15]; +0 μg/mL (FITC)KKOO): 16 µg/mL
- MIC of antifungal in combination with KKOO ([15]; +0 μg/mL KKOO (control)): 16 µg/mL
- MIC of antifungal in combination with KKOO-NH2 ([15]; +0 μg/mL KKOO-NH2 (control)): 16 µg/mL
- MIC of antifungal in combination with KKOO-NH2 ([15]; +1 μg/mL KKOO-NH2): 16 µg/mL
- MIC of antifungal in combination with KKOO ([15]; +1 μg/mL KKOO): 16 µg/mL
- MIC of antifungal in combination with KKOO-NH2 ([15]; +2 μg/mL KKOO-NH2): 16 µg/mL
- MIC of antifungal in combination with KKOO ([15]; +2 μg/mL KKOO): 16 µg/mL
- MIC of antifungal in combination with (FITC)KKOO ([15]; +4 μg/mL (FITC)KKOO): 16 µg/mL
- MIC of antifungal in combination with KKOO-NH2 ([15]; +4 μg/mL KKOO-NH2): 4 µg/mL
- MIC of antifungal in combination with KKOO ([15]; +4 μg/mL KKOO): 16 µg/mL
- MIC of antifungal in combination with (FITC)KKOO ([15]; +8 μg/mL (FITC)KKOO): 16 µg/mL
- MIC of antifungal in combination with KKOO ([15]; +8 μg/mL KKOO): 8 µg/mL
- MIC of antifungal in combination with KKOO ([16]; +0 μg/mL KKOO (control)): 0.25 µg/mL
- MIC of antifungal in combination with KKOO-NH2 ([16]; +0 μg/mL KKOO-NH2 (control)): 0.25 µg/mL
- MIC of antifungal in combination with KKOO-NH2 ([16]; +1 μg/mL KKOO-NH2): 0.5 µg/mL
- MIC of antifungal in combination with KKOO ([16]; +1 μg/mL KKOO): 0.5 µg/mL
- MIC of antifungal in combination with KKOO-NH2 ([16]; +2 μg/mL KKOO-NH2): 0.062 µg/mL
- MIC of antifungal in combination with KKOO ([16]; +2 μg/mL KKOO): 0.125 µg/mL
- MIC of antifungal in combination with KKOO-NH2 ([16]; +4 μg/mL KKOO-NH2): 0.008 µg/mL
- MIC of antifungal in combination with KKOO ([16]; +4 μg/mL KKOO): 0.556 µg/mL
- MIC of antifungal in combination with KKOO ([16]; +8 μg/mL KKOO): 0.008 µg/mL
- MIC of antifungal in combination with KKOO ([17]; +0 μg/mL KKOO (control)): 1 µg/mL
- MIC of antifungal in combination with KKOO-NH2 ([17]; +0 μg/mL KKOO-NH2 (control)): 1 µg/mL
- MIC of antifungal in combination with KKOO-NH2 ([17]; +1 μg/mL KKOO-NH2): 0.5 µg/mL
- MIC of antifungal in combination with KKOO ([17]; +1 μg/mL KKOO): 1 µg/mL
- MIC of antifungal in combination with KKOO-NH2 ([17]; +2 μg/mL KKOO-NH2): 0.125 µg/mL
- MIC of antifungal in combination with KKOO ([17]; +2 μg/mL KKOO): 0.25 µg/mL
- MIC of antifungal in combination with KKOO-NH2 ([17]; +4 μg/mL KKOO-NH2): 0.031 µg/mL
- MIC of antifungal in combination with KKOO ([17]; +4 μg/mL KKOO): 0.031 µg/mL
- reduction of MIC of antifungal ([17]; in the presence of 2 μg/mL KKOO-NH2, 48 h): 8 fold
- MIC of antifungal in combination with KKOO ([18]; +0 μg/mL KKOO (control)): 0.125 µg/mL
- MIC of antifungal in combination with KKOO-NH2 ([18]; +0 μg/mL KKOO-NH2 (control)): 0.125 µg/mL
- MIC of antifungal in combination with KKOO-NH2 ([18]; +1 μg/mL KKOO-NH2): 0.031 µg/mL
- MIC of antifungal in combination with KKOO ([18]; +1 μg/mL KKOO): 0.062 µg/mL
- MIC of antifungal in combination with KKOO-NH2 ([18]; +2 μg/mL KKOO-NH2): 0.031 µg/mL
- MIC of antifungal in combination with KKOO ([18]; +2 μg/mL KKOO): 0.031 µg/mL
- MIC of antifungal in combination with KKOO-NH2 ([18]; +4 μg/mL KKOO-NH2): 0.031 µg/mL
- MIC of antifungal in combination with KKOO ([18]; +4 μg/mL KKOO): 0.031 µg/mL
- MIC of antifungal in combination with KKOO-NH2 ([18]; +8 μg/mL KKOO-NH2): 0.031 µg/mL
